Calls of active or inactive are those of the source.
How the values were obtained:
[1] = target: Muscarinic acetylcholine receptor M1 (Rattus norvegicus, UniProt P08482); experiment: concentration-dependent potentiation of ACh at M1 – cell-based, calcium mobilization, CHO-K1, ACh EC20, dose response (AID 2425); format: functional
HEK293 = experiment: EBV LMP1 TES2 canonical NF-kB signalling blockers – cell-based, HEK293, luciferase, cherry-pick, dose response (AID 588343); format: functional; conditions: Homo sapiens
[2] = NIH3T3 cell viability loss – ATP luminescence, mouse fibroblasts, counter-screen, dose response (AID 2010); format: functional, cell-based;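 also: cells exposed to compound for about 90 hours before reading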
[3] = target: ATP-binding cassette sub-family B member 6 (Homo sapiens, UniProt Q9NP58); experiment: concentration-dependent ABCB6 porphyrin transport blockade – K562-ABCB6 cells, flow cytometry, cherry pick 1, dose response (AID 623955); format: functional; conditions: read-out: EC50_MICROM
ATP-binding cassette sub-family B member 6, sequence (Q9NP58 whole entry): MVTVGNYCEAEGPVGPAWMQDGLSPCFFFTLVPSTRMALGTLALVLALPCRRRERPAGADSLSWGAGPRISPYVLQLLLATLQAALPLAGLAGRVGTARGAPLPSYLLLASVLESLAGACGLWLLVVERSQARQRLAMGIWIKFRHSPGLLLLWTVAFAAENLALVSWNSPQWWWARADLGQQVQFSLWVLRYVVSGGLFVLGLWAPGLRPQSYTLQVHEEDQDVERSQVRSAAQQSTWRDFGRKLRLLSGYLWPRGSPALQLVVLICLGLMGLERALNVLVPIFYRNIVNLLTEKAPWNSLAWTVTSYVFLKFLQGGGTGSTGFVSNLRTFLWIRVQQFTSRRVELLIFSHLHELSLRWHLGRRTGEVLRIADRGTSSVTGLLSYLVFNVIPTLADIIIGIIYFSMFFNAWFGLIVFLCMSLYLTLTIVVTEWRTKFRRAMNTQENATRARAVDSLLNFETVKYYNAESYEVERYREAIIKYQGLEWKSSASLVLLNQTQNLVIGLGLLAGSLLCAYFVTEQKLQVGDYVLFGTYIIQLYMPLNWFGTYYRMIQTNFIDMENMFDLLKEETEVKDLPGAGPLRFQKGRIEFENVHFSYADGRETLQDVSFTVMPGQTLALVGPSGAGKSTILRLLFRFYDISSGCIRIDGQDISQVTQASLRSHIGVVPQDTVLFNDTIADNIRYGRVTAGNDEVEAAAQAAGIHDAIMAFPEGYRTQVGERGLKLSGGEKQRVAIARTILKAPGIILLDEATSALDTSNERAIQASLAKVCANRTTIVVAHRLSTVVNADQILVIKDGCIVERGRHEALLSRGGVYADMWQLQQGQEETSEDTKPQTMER

[4] = Luminescent dose response cell-based high throughput screening assay for inhibitors of the Janus kinase 2 mutant JAK2V617F. [Related pubchem assays: 1446 (Primary screen.), 1521 (Confirmation assay.), 1486 (Counter screen.)]; format: functional
[5] = Trypanosoma cruzi growth suppression in host cells – NIH3T3 host cells, beta-gal luminescence, confirmation (AID 2044); format: functional, cell-based;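 also: intracellular parasites grown in NIH/3T3 mouse fibroblasts as host cells; luminescent beta-galactosidase reporter signal from transgenic T. cruzi replicating inside host cells; inhibitors lower the luminescence signal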
[6] = target: Solute carrier family 12 member 2/member 5 (Homo sapiens, UniProt P55011+Q9H2X9); experiment: KCC2 and NKCC1 inhibition by rubidium flux, cell-based, NKCC1 counter-screen (AID 1734); format: functional, HEK293
[7] = A High Throughput Confirmatory Assay used to Identify Novel Compounds that Inhibit Mycobacterium Tuberculosis in the absence of Glycerol.; format: functional
[8] = target: Bifunctional protein GlmU (Mycobacterium tuberculosis, UniProt P9WMN3); experiment: Inhibitors of Mycobacterial Glucosamine-1-phosphate acetyl transferase (GlmU). Secondary screen.; design: species or system Mycobacterium tuberculosis H37Rv
Bifunctional protein GlmU, sequence (P9WMN3 whole entry): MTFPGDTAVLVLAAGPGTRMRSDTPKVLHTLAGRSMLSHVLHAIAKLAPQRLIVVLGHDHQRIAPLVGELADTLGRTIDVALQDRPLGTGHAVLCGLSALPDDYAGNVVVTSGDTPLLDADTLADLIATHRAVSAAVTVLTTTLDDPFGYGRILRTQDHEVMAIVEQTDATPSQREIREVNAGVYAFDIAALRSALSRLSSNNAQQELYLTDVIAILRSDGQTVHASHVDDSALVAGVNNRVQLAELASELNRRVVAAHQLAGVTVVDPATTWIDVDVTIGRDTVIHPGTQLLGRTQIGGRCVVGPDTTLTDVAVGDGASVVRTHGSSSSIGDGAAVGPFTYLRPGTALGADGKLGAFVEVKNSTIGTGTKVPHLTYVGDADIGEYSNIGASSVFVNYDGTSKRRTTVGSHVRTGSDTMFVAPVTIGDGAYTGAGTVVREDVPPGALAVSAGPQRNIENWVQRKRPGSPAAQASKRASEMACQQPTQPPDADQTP

[9] = target: Induced myeloid leukemia cell differentiation protein Mcl-1 (Homo sapiens, UniProt Q07820); format: functional
Induced myeloid leukemia cell differentiation protein Mcl-1, sequence (Q07820 whole entry): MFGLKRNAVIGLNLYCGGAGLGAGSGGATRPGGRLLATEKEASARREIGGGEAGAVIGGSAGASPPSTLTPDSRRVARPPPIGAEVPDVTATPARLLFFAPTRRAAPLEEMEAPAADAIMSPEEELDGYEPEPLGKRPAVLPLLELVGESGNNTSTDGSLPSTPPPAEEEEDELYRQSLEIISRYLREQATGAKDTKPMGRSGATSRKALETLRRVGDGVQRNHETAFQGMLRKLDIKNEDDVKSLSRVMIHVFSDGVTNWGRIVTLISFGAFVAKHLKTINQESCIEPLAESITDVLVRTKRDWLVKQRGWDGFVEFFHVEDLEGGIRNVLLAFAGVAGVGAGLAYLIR

Galanin receptor type 2 = Galanin receptor type 2 (Homo sapiens, UniProt O43603); experiment: Dose Response cell-based high-throughput screening assay to identify antagonists of galanin receptor 2 (GALR2). [Related pubchem assays: 828, 866 ]; format: functional
Galanin receptor type 2, sequence (O43603 whole entry): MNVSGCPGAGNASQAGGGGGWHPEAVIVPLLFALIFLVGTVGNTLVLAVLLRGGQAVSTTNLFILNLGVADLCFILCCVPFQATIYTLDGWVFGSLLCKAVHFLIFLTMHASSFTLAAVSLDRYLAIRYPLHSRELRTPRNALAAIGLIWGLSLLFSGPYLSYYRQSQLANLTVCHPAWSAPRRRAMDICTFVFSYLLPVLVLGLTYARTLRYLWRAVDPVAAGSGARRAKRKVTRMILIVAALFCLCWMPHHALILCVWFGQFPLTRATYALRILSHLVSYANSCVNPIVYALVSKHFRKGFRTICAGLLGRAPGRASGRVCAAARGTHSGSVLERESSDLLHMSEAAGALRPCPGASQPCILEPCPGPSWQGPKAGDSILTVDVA

[10] = target: 5-hydroxytryptamine receptor 1A (Homo sapiens, UniProt P08908); format: functional
5-hydroxytryptamine receptor 1A, sequence (P08908 whole entry): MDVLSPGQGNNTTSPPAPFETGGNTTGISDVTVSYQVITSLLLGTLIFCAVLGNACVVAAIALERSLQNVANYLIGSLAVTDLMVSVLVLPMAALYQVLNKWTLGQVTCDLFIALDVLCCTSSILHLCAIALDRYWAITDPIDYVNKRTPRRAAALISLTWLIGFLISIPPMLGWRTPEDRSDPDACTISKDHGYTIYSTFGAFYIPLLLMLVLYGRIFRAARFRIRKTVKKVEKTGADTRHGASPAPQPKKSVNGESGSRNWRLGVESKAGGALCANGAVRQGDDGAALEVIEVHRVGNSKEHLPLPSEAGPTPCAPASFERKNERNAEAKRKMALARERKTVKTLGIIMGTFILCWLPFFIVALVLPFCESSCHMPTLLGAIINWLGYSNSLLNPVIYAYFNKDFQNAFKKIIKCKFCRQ

Muscarinic acetylcholine receptor M1, sequence (P08482 whole entry): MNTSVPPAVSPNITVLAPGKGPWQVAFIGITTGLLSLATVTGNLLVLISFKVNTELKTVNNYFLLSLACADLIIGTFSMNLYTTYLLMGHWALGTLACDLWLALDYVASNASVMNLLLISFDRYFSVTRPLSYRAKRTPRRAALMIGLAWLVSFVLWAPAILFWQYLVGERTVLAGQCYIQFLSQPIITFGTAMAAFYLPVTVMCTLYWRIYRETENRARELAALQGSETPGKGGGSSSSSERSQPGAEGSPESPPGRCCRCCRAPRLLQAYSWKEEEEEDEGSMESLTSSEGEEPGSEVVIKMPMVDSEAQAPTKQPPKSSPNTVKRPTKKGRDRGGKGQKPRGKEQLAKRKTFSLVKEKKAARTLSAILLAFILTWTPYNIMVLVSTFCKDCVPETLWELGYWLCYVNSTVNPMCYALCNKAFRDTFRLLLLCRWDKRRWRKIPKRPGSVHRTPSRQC

In the case of `Cn1cc(-c2ccc(CN3C(=O)C(=O)c4cccc(F)c43)c(F)c2)cn1`, the EC50 [1] is reported as 2.32 µM (active).

For `CCN(CC)S(=O)(=O)c1cccc(N2C(=O)/C(=C\Nc3ccccc3C(=O)O)c3ccccc3C2=O)c1`, the AC50 (HEK293) was 0.167 µM (active), the EC50 [2] was > 60 µM (not active) and the EC50 [3] was 0.21 µM (active). The IC50 [4] was > 40 µM (not active) and the EC50 [5] was 13.7 µM (active).

For `O=C(Nc1ccc(S(=O)(=O)NCc2ccccc2)cc1)c1ccccc1[N+](=O)[O-]`, the IC50 [6] was 5.1 µM (active).

For `Cc1ccc(S(=O)(=O)NCc2ccc(C(=O)NCCCN3CCC(Cc4ccccc4)CC3)cc2)cc1`, the IC50 [7] was > 100 µM (active).

For `O=c1c(C(c2ccccn2)c2c(O)oc3ccccc3c2=O)c(O)oc2ccccc12`, the IC50 [8] was 152 µM (active).

With `CCCOc1[nH]cnc2c3ccccc3nc1-2` the IC50 [9] was 19.6 µM (not active) and the IC50 (Galanin receptor type 2) was > 42 µM (not active).

In the case of `Cc1[nH]c2c(Cl)cccc2c1CCN`, the EC50 [10] is reported as > 50 µM (not active).

Reference: ChEMBL document CHEMBL1201862, “PubChem BioAssay data set” (2004)
